Test results taken from US9643955B2, “2-pyridyloxy-3-nitrile-4-substituted orexin receptor antagonists” (MERCK SHARP & DOHME CORP., priority 2012, dated 2017).

Columns and labels:
[1] = target: T1, hOX2R (Homo sapiens, UniProt O43614); assay: radioligand binding assay, hOX2R; conditions: membranes prepared from CHO cells expressing the OX2 receptor; read-out: hOX2R BIND hKi
T1 construct: expressed in transfected cells; host or cells: membranes of CHO cells
T1 sequence (O43614 1-444): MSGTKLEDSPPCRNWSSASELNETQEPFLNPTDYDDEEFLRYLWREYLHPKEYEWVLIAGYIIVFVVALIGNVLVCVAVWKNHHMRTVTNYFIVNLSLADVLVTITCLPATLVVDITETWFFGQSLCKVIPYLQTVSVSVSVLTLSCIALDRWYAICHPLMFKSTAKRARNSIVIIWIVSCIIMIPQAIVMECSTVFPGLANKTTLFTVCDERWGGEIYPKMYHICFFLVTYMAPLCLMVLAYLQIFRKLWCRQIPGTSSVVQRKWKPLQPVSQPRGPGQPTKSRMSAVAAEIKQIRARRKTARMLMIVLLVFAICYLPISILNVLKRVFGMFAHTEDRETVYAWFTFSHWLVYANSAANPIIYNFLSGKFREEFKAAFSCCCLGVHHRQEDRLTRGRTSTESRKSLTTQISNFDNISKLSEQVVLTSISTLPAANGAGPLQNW
Description: (§1) The utility of the compounds in accordance with the present invention as orexin receptor OX1R and/or OX2R antagonists may be readily determined without undue experimentation by methodology well known in the art, including the “FLIPR Ca^2+ Flux Assay” (Okumura et al., Biochem. Biophys. Res. Comm. 280:976-981, 2001). In a typical experiment the OX1 and OX2 receptor antagonistic activity of the compounds of the present invention was determined in accordance with the following experimental method. For intracellular calcium measurements, Chinese hamster ovary (CHO) cells expressing the rat orexin-1 receptor or the human orexin-2 receptor, are grown in Iscove's modified DMEM containing 2 mM L-glutamine, […], 1% hypoxanthine-thymidine supplement, 100 U/ml penicillin, 100 μg/ml streptomycin and 10% heat-inactivated fetal calf serum (FCS). The cells are seeded at 20,000 cells/well into Becton-Dickinson black 384-well clear bottom sterile plates coated with poly-D-lysine. All reagents were from GIBCO-Invitrogen Corp. The seeded plates are incubated overnight at 37° C. and 5% CO2. Ala-6,12 human orexin-A as the agonist is prepared as a 1 mM stock solution in 1% bovine serum albumin (BSA) and diluted in assay buffer (HBSS containing 20 mM HEPES, 0.1% BSA and 2.5 mM probenecid, pH7.4) for use in the assay at a final concentration of 70 pM. Test compounds are prepared as 10 mM stock solution in DMSO, then diluted in 384-well plates, first in DMSO, then assay buffer. On the day of the assay, cells are washed 3 times with 100 μl assay buffer and then incubated for 60 min (37° C., 5% CO2) in 60 μl assay buffer containing 1 μM Fluo-4AM ester, 0.02% pluronic acid, and 1% BSA. The dye loading solution is then aspirated and cells are washed 3 times with 100 μl assay buffer. 30 μl of that same buffer is left in each well. Within the Fluorescent Imaging Plate Reader (FLIPR, Molecular Devices), test compounds are added to the plate in a volume of 25 μl, incubated for 5 min and finally 25 μl of agonist is added. Fluorescence is measured for each well at 1 second intervals for 5 minutes and the height of each fluorescence peak is compared to the height of the fluorescence peak induced by 70 pM Ala-6,12 orexin-A with buffer in place of antagonist. […] The intrinsic orexin receptor antagonist activity of a compound which may be used in the present invention may be determined by these assays.

[2] = target: T2, hOX1R (Homo sapiens, UniProt O43613); assay: radioligand binding assay, hOX1R; set-up: expressed in transfected cells; host or cells: membranes of CHO cells; conditions: membranes prepared from CHO cells expressing the OX1 receptor; read-out: hOX1R BIND hKi
T2 sequence (O43613 1-425): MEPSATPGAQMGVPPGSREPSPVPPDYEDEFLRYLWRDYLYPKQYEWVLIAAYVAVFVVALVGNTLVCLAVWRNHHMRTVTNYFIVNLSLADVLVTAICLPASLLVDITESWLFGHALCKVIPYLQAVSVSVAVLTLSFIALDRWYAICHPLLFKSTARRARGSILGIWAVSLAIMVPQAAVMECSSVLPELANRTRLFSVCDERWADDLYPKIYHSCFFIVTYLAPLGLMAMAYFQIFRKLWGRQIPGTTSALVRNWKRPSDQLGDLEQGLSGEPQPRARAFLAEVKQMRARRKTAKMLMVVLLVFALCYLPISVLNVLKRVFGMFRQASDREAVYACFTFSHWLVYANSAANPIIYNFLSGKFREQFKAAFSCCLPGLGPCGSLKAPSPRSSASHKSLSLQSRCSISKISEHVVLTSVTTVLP
Description: as §1

[3] = target: T3, human orexin-2 receptor (Homo sapiens, UniProt O43614); assay: FLIPR Ca2+ Flux Assay, hOX2R; assay type: cell-based; conditions: CHO cells expressing the human orexin-2 receptor; agonist 70 pM Ala-6,12 orexin-A
T3 construct: expressed in transfected cells; host or cells: CHO cells
T3 sequence (O43614 1-444): T1 sequence (O43614 1-444)
Description: The utility of the compounds in accordance with the present invention as orexin receptor OX1R and/or OX2R antagonists may be readily determined without undue experimentation by methodology well known in the art, including the “FLIPR Ca^2+ Flux Assay” (Okumura et al., Biochem. Biophys. Res. Comm. 280:976-981, 2001). In a typical experiment the OX1 and OX2 receptor antagonistic activity of the compounds of the present invention was determined in accordance with the following experimental method. For intracellular calcium measurements, Chinese hamster ovary (CHO) cells expressing the rat orexin-1 receptor or the human orexin-2 receptor, are grown in Iscove's modified DMEM containing 2 mM L-glutamine, […], 1% hypoxanthine-thymidine supplement, 100 U/ml penicillin, 100 μg/ml streptomycin and 10% heat-inactivated fetal calf serum (FCS). The cells are seeded at 20,000 cells/well into Becton-Dickinson black 384-well clear bottom sterile plates coated with poly-D-lysine. All reagents were from GIBCO-Invitrogen Corp. The seeded plates are incubated overnight at 37° C. and 5% CO2. Ala-6,12 human orexin-A as the agonist is prepared as a 1 mM stock solution in 1% bovine serum albumin (BSA) and diluted in assay buffer (HBSS containing 20 mM HEPES, 0.1% BSA and 2.5 mM probenecid, pH7.4) for use in the assay at a final concentration of 70 pM. Test compounds are prepared as 10 mM stock solution in DMSO, then diluted in 384-well plates, first in DMSO, then assay buffer. On the day of the assay, cells are washed 3 times with 100 μl assay buffer and then incubated for 60 min (37° C., 5% CO2) in 60 μl assay buffer containing 1 μM Fluo-4AM ester, 0.02% pluronic acid, and 1% BSA. The dye loading solution is then aspirated and cells are washed 3 times with 100 μl assay buffer. 30 μl of that same buffer is left in each well. Within the Fluorescent Imaging Plate Reader (FLIPR, Molecular Devices), test compounds are added to the plate in a volume of 25 μl, incubated for 5 min and finally 25 μl of agonist is added. Fluorescence is measured for each well at 1 second intervals for 5 minutes and the height of each fluorescence peak is compared to the height of the fluorescence peak induced by 70 pM Ala-6,12 orexin-A with buffer in place of antagonist. For each antagonist, IC50 value (the concentration of compound needed to inhibit 50% of the agonist response) is determined Alternatively, compound potency can be assessed by a radioligand binding assay (described in Bergman et. al. Bioorg. Med. Chem. Lett. 2008, 18, 1425-1430) in which the inhibition constant (Ki) is determined in membranes prepared from CHO cells expressing either the OX1 or OX2 receptor. The intrinsic orexin receptor antagonist activity of a compound which may be used in the present invention may be determined by these assays.

[4] = target: T2, hOX1R; assay: FLIPR Ca2+ Flux Assay, hOX1R; assay type: cell-based; set-up: expressed in transfected cells; host or cells: CHO cells; conditions: CHO cells expressing orexin-1 receptor; agonist 70 pM Ala-6,12 orexin-A

Ki [1]	Ki [2]	IC50 [3]	IC50 [4]	Structure (SMILES)
–	–	0.0203 µM	0.457 µM	Cc1ccnc(O[C@@H]2CC[C@@H](C)N(C(=O)c3cccc(C)c3-n3nccn3)C2)c1C#N [Example 7, 4-methyl-2-{[(3R,6R)-6-methyl-1-{[3-methyl-2-(2H-1,2,3-triazol-2-yl)phenyl]carbonyl}piperidin-3-yl]oxy}pyridine-3-carbonitrile]
–	–	0.0736 µM	3.71 µM	Cc1ccnc(O[C@@H]2CC[C@@H](C)N(C(=O)c3ccc(Cl)cc3-n3nccn3)C2)c1C#N [Example 3, 2-{[(3R,6R)-1-{[4-Chloro-2(2H-1,2,3-triazol-2-yl)phenyl]carbonyl}-6-methylpiperidin-3-yl]oxy}-4-methylpyridine-3-carbonitrile]
0.034 µM	3.61 µM	–	–	Cc1ccnc(O[C@@H]2CC[C@@H](C)N(C(=O)c3c(F)cccc3-n3nccn3)C2)c1C#N [Example 5, 2-{[(3R,6R)-1-{[2-fluoro-6-(2H-1,2,3-triazol-2-yl)phenyl]carbonyl}-6-methylpiperidin-3-yl]oxy}-4-methylpyridine-3-carbonitrile]
–	–	0.0598 µM	7.39 µM	Cc1ccnc(O[C@@H]2CC[C@@H](C)N(C(=O)c3ccc(F)cc3-n3nccn3)C2)c1C#N [Example 8, 2-{[(3R,6R)-1-{[4-fluoro-2-(2H-1,2,3-triazol-2-yl)phenyl]carbonyl}-6-methylpiperidin-3-yl]oxy}-4-methylpyridine-3-carbonitrile]
–	–	0.0426 µM	3.65 µM	Cc1ccnc(O[C@@H]2CC[C@@H](C)N(C(=O)c3cccc(F)c3-n3nccn3)C2)c1C#N [Example 10, 2-{[(3R,6R)-1-{[3-fluoro-2-(2H-1,2,3-triazol-2-yl)phenyl]carbonyl}-6-methylpiperidin-3-yl]oxy}-4-methylpyridine-3-carbonitrile]
–	–	0.0098 µM	0.464 µM	Cc1ccnc(O[C@@H]2CC[C@@H](C)N(C(=O)c3ccccc3-n3nccn3)C2)c1C#N [Example 2, 4-Methyl-2{[(3R,6R)-6-methyl-1-{[2-(2H-1,2,3-triazol-2-yl)phenyl]carbonyl}piperidin-3-yl]oxy}pyridine-3-carbonitrile]

Continued, compound first:

Structure (SMILES)	Ki [1]	Ki [2]	IC50 [3]	IC50 [4]
Cc1ccc(-n2nccn2)c(C(=O)N2C[C@H](Oc3nccc(C)c3C#N)CC[C@H]2C)c1 [Example 11, 4-methyl-2-{[(3R,6R)-6-methyl-1-{[5-methyl-2-(2H-1,2,3-triazol-2-yl)phenyl]carbonyl}piperidin-3-yl]oxy}pyridine-3-carbonitrile]	0.024 µM	0.007 µM	–	–
COc1ccc(C(=O)N2C[C@H](Oc3nccc(C)c3C#N)CC[C@H]2C)c(-n2nccn2)n1 [Example 12, 2-{[(3R,6R)-1-{[6-methoxy-2-(2H-1,2,3-triazol-2-yl)pyridin-3-yl]carbonyl}-6-methylpiperidin-3-yl]oxy}-4-methylpyridine-3-carbonitrile]	–	–	0.28 µM	10 µM
COc1cccc(-n2nccn2)c1C(=O)N1C[C@H](Oc2nccc(C)c2C#N)CC[C@H]1C [Example 6, 2-{[(3R,6R)-1-{[2-methoxy-6-(2H-1,2,3-triazol-2-yl)phenyl]carbonyl}-6-methylpiperidin-3-yl]oxy}-4-methylpyridine-3-carbonitrile]	–	–	0.0676 µM	1.16 µM
COc1ccc(C(=O)N2C[C@H](Oc3nccc(C)c3C#N)CC[C@H]2C)c(-n2nccn2)c1 [Example 9, 2-{[(3R,6R)-1-{[4-methoxy-2-(2H-1,2,3-triazol-2-yl)phenyl]carbonyl}-6-methylpiperidin-3-yl]oxy}-4-methylpyridine-3-carbonitrile]	0.06 µM	5.66 µM	–	–
Cc1ccnc(O[C@@H]2CC[C@@H](C)N(C(=O)c3cnccc3-n3nccn3)C2)c1C#N [Example 4, 4-methyl-2-{[(3R,6R)-6-methyl-1-{[4-(2H-1,2,3-triazol-2-yl)pyridin-3-yl]carbonyl}piperidin-3-yl]oxy}pyridine-3-carbonitrile]	0.054 µM	1.29 µM	–	–
CSc1ccnc(O[C@@H]2CC[C@@H](C)N(C(=O)c3ccccc3-n3nccn3)C2)c1C#N [Example 1, 4-(Methylsulfanyl)-2-{[(3R,6R)-6-methyl-1-{[2-(2H-1,2,3-triazol-2-yl)phenyl]carbonyl}-piperidin-3-yl]oxy}pyridine-3-carbonitrile]	–	–	0.039 µM	7.44 µM
